Test [1] deals with HEL. Nature of the test: Cytotoxic concentration required to inhibit HEL cell growth by 50 %. The settings on record: Homo sapiens. The format is functional.
For test [2], the system named is HEL. As to the kind of experiment: Minimum cytotoxic concentration required to alter microscopically detectable HEL cell morphology. The format is functional. The note with it: Homo sapiens.
Test [3] has as its system Human alphaherpesvirus 3. As to the kind of experiment: Effective concentration required for reduction of plaque formation of Varicella-Zoster Virus (OKA strain). The format is functional, organism-based.
Test [4] deals with Human alphaherpesvirus 3. Nature of the test: Effective concentration required for reduction of plaque formation of Varicella-Zoster Virus, (YS strain). The format is functional, organism-based.
In test [5] the test system is Human alphaherpesvirus 3. Nature of the test: Effective concentration required for reduction of plaque formation of thymidine kinase deficient Varicella-Zoster Virus (071 strain). The format is functional, organism-based.
For test [6], the system named is Human alphaherpesvirus 3. As to the kind of experiment: Effective concentration required for reduction of plaque formation of thymidine kinase deficient Varicella-Zoster Virus (YSR strain). The format is functional, organism-based.

From ChEMBL document CHEMBL1134172, “Bicyclic nucleoside inhibitors of Varicella-Zoster Virus (VZV): the effect of terminal unsaturation in the side chain” (Bioorg Med Chem Lett, 2001) come the findings set out here.

`CCCCCCCCCCc1cc2cn([C@H]3C[C@H](O)[C@@H](CO)O3)c(=O)nc2o1` had a CC50 in the test on HEL [1] of over 50 µM.

In the case of `CCCCCCCCc1cc2cn([C@H]3C[C@H](O)[C@@H](CO)O3)c(=O)nc2o1`, the CC50 in the test on HEL [1] was over 50 µM.

Regarding `CCCCCCc1cc2cn([C@H]3C[C@H](O)[C@@H](CO)O3)c(=O)nc2o1`, in the test on HEL [1], the CC50 is over 200 µM. The MCC with HEL [2] was over 50 µM.

In turn, `CCCCCCCc1cc2cn([C@H]3C[C@H](O)[C@@H](CO)O3)c(=O)nc2o1` showed a CC50 in the test on HEL [1] of over 50 µM.

Molecule `C#CCCCCCCc1cc2cn([C@H]3C[C@H](O)[C@@H](CO)O3)c(=O)nc2o1` returned a CC50 in the test on HEL [1] of over 200 µM. In the test with HEL [2], this molecule yielded an MCC of over 200 µM. Besides, the concentration giving a half-maximal response (EC50) with Human alphaherpesvirus 3 [3] is 5 µM; in the test on Human alphaherpesvirus 3 [4] it was 4 µM; in the test with Human alphaherpesvirus 3 [5], over 200 µM; in the test with Human alphaherpesvirus 3 [6] it was over 200 µM.

In the test with HEL [1], `C#CCCCCCc1cc2cn([C@H]3C[C@H](O)[C@@H](CO)O3)c(=O)nc2o1` returned a 50% cytotoxic concentration (CC50) of over 200 µM. Further, the MCC in the test with HEL [2] is over 200 µM. Besides, the 50% effective concentration (EC50) with Human alphaherpesvirus 3 [3] was 79 µM; in the test on Human alphaherpesvirus 3 [4], 37 µM; in the test with Human alphaherpesvirus 3 [5], over 200 µM; in the test on Human alphaherpesvirus 3 [6], over 200 µM.

In the case of `C=CCCCCc1cc2cn([C@H]3C[C@H](O)[C@@H](CO)O3)c(=O)nc2o1`, in the test with HEL [1], the CC50 is over 200 µM. Moreover, the MCC in the test with HEL [2] is over 200 µM. Further, the EC50 with Human alphaherpesvirus 3 [3] is 14 µM; in the test on Human alphaherpesvirus 3 [4], 13 µM; in the test on Human alphaherpesvirus 3 [5] it was over 200 µM; in the test with Human alphaherpesvirus 3 [6], over 200 µM.

As for `C=CCCCCCCc1cc2cn([C@H]3C[C@H](O)[C@@H](CO)O3)c(=O)nc2o1`, the CC50 with HEL [1] is over 200 µM. For the same molecule, the MCC in the test with HEL [2] was over 200 µM. Besides, the EC50 is 0.27 µM in the test on Human alphaherpesvirus 3 [3], 0.06 µM in the test with Human alphaherpesvirus 3 [4], over 200 µM with Human alphaherpesvirus 3 [5] and over 50 µM with Human alphaherpesvirus 3 [6].

Turning to `C=CCCCc1cc2cn([C@H]3C[C@H](O)[C@@H](CO)O3)c(=O)nc2o1`, the cytotoxic concentration (CC50) in the test with HEL [1] was over 200 µM. This molecule gave an MCC with HEL [2] of over 200 µM. In addition, the EC50 with Human alphaherpesvirus 3 [3], in the test on Human alphaherpesvirus 3 [4], in the test with Human alphaherpesvirus 3 [5] and with Human alphaherpesvirus 3 [6] was over 200 µM throughout.

`CCCCCc1cc2cn([C@H]3C[C@H](O)[C@@H](CO)O3)c(=O)nc2o1` showed a 50% cytotoxic concentration (CC50) in the test on HEL [1] of over 50 µM.

The molecule `C=CCCCCCCCCc1cc2cn([C@H]3C[C@H](O)[C@@H](CO)O3)c(=O)nc2o1` displayed a CC50 in the test with HEL [1] of over 200 µM. In the test on HEL [2], this molecule gave an MCC of over 50 µM. The EC50 is 0.09 µM in the test on Human alphaherpesvirus 3 [3], 0.1 µM in the test on Human alphaherpesvirus 3 [4], over 200 µM in the test on Human alphaherpesvirus 3 [5] and over 200 µM in the test with Human alphaherpesvirus 3 [6].

On to `C#CCCCc1cc2cn([C@H]3C[C@H](O)[C@@H](CO)O3)c(=O)nc2o1`, for which, in the test with HEL [1], the CC50 was over 200 µM. The molecule also yielded an MCC in the test on HEL [2] of over 200 µM. For the same molecule, the EC50 was 8 µM in the test with Human alphaherpesvirus 3 [3], 10 µM in the test with Human alphaherpesvirus 3 [4], over 200 µM in the test on Human alphaherpesvirus 3 [5] and over 200 µM in the test with Human alphaherpesvirus 3 [6].

Regarding `C#CCCCCc1cc2cn([C@H]3C[C@H](O)[C@@H](CO)O3)c(=O)nc2o1`, the CC50 with HEL [1] is over 200 µM. Also, the MCC with HEL [2] was over 200 µM. The EC50 in the test on Human alphaherpesvirus 3 [3] was 25 µM; in the test on Human alphaherpesvirus 3 [4], 33 µM; in the test with Human alphaherpesvirus 3 [5] it was over 200 µM; with Human alphaherpesvirus 3 [6], over 200 µM.

With `Nc1nc2c(ncn2COCCO)c(=O)[nH]1` [ACYCLOVIR], the half-maximal cytotoxic concentration (CC50) in the test with HEL [1] was over 200 µM. The same molecule yielded an EC50 in the test on Human alphaherpesvirus 3 [5] of over 4 µM.
